Source: ChEMBL document CHEMBL1201862, “PubChem BioAssay data set” (2004)
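Results reflect a 48-hour exposure of cells in 96-well plates to compound at five concentrations. Here, GI50 denotes the concentration required for 50% inhibition of growth.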 Active and inactive are the calls of the source. Rule as the data show it: active = GI50 up to about 1.1 µM and inactive = higher.

Experiments:
Experiment in all cases: NCI tumour cell line growth inhibition, 48 h
786-0 = test system: 786-0
A549 = test system: A549
ACHN = test system: ACHN
CAKI-1 = test system: CAKI-1
CCRF-CEM = test system: CCRF-CEM
COLO 205 = test system: COLO 205
DLD-1 = test system: DLD-1
DMS-114 = test system: DMS-114
EKVX = test system: EKVX
HCC 2998 = test system: HCC 2998
HCT-116 = test system: HCT-116
HCT-15 = test system: HCT-15
HL-60 = test system: HL-60
HOP-18 = test system: HOP-18
HOP-62 = test system: HOP-62
HOP-92 = test system: HOP-92
HT-29 = test system: HT-29
IGROV-1 = test system: IGROV-1
K562 = test system: K562
KM-20L2 = test system: KM-20L2
KM12 = test system: KM12
LOX IMVI = test system: LOX IMVI
LXFL 529 = test system: LXFL 529
M14 = test system: M14
M19-MEL = test system: M19-MEL
MOLT-4 = test system: MOLT-4
Malme-3M = test system: Malme-3M
NCI-H226 = test system: NCI-H226
NCI-H23 = test system: NCI-H23
NCI-H460 = test system: NCI-H460
NCI-H522 = test system: NCI-H522
OVCAR-3 = test system: OVCAR-3
OVCAR-4 = test system: OVCAR-4
OVCAR-5 = test system: OVCAR-5
OVCAR-8 = test system: OVCAR-8
RPMI-8226 = test system: RPMI-8226
RXF 631 = test system: RXF 631
SF-268 = test system: SF-268
SF-295 = test system: SF-295
SK-MEL-28 = test system: SK-MEL-28
SK-MEL-2 = test system: SK-MEL-2
SK-MEL-5 = test system: SK-MEL-5
SK-OV-3 = test system: SK-OV-3
SNB-19 = test system: SNB-19
SNB-75 = test system: SNB-75
SNB-78 = test system: SNB-78
SR = test system: SR
SW-620 = test system: SW-620
TK-10 = test system: TK-10
U-251 = test system: U-251
UACC-257 = test system: UACC-257
UACC-62 = test system: UACC-62
UO-31 = test system: UO-31
XF498 = test system: XF498
A498 = test system: A498
RXF 393 = test system: RXF 393
SF-539 = test system: SF-539
SN12C = test system: SN12C
DMS-273 = test system: DMS-273

COc1ccc(NC(=O)CC(=O)N/N=C/c2ccc(N(CCC#N)S(=O)(=O)c3ccccc3)cc2)cc1 was tested, and the GI50 (786-0) was > 100 µM (inactive), the GI50 (A549) was > 100 µM (inactive) and the GI50 (ACHN) was > 100 µM (inactive). For the same compound, the GI50 (CAKI-1) was > 100 µM (inactive), the GI50 (CCRF-CEM) was > 100 µM (inactive) and the GI50 (COLO 205) was > 100 µM (inactive). The GI50 (DLD-1) was > 100 µM (inactive), the GI50 (DMS-114) was > 100 µM (inactive) and the GI50 (EKVX) was > 100 µM (inactive). For the same compound, the GI50 (HCC 2998) was > 100 µM (inactive), the GI50 (HCT-116) was > 100 µM (inactive) and the GI50 (HCT-15) was > 100 µM. The GI50 (HL-60) was > 100 µM (inactive), the GI50 (HOP-18) was > 100 µM (inactive) and the GI50 (HOP-62) was > 100 µM (inactive). For the same compound, the GI50 (HOP-92) was > 100 µM (inactive), the GI50 (HT-29) was > 100 µM (inactive) and the GI50 (IGROV-1) was > 100 µM (inactive). For the same compound, the GI50 (K562) was > 100 µM (inactive), the GI50 (KM-20L2) was > 100 µM (inactive) and the GI50 (KM12) was > 100 µM (inactive). For the same compound, the GI50 (LOX IMVI) was > 100 µM (inactive), the GI50 (LXFL 529) was > 100 µM (inactive) and the GI50 (M14) was > 100 µM (inactive). The GI50 (M19-MEL) was > 100 µM (inactive), the GI50 (MOLT-4) was > 100 µM (inactive) and the GI50 (Malme-3M) was > 100 µM (inactive). The GI50 (NCI-H226) was > 100 µM (inactive), the GI50 (NCI-H23) was > 100 µM (inactive) and the GI50 (NCI-H460) was > 100 µM (inactive). For the same compound, the GI50 (NCI-H522) was > 100 µM (inactive), the GI50 (OVCAR-3) was > 100 µM (inactive) and the GI50 (OVCAR-4) was > 100 µM (inactive). For the same compound, the GI50 (OVCAR-5) was > 100 µM (inactive), the GI50 (OVCAR-8) was > 100 µM (inactive) and the GI50 (RPMI-8226) was > 100 µM (inactive). The GI50 (RXF 631) was > 100 µM (inactive), the GI50 (SF-268) was > 100 µM (inactive) and the GI50 (SF-295) was > 100 µM (inactive). For the same compound, the GI50 (SK-MEL-28) was > 100 µM (inactive), the GI50 (SK-MEL-2) was > 100 µM (inactive) and the GI50 (SK-MEL-5) was > 100 µM (inactive). For the same compound, the GI50 (SK-OV-3) was > 100 µM (inactive), the GI50 (SNB-19) was > 100 µM (inactive) and the GI50 (SNB-75) was > 10 µM (inactive). The GI50 (SNB-78) was > 100 µM (inactive), the GI50 (SR) was > 100 µM (inactive) and the GI50 (SW-620) was > 100 µM (inactive). For the same compound, the GI50 (TK-10) was > 100 µM (inactive), the GI50 (U-251) was > 100 µM (inactive) and the GI50 (UACC-257) was > 100 µM (inactive). The GI50 (UACC-62) was > 100 µM (inactive), the GI50 (UO-31) was > 100 µM (inactive) and the GI50 (XF498) was > 100 µM (inactive).

CSc1nc2c(nc(N)n2C2OCC(O)C(O)C2O)c(=O)n1C (centres undefined) was tested, and the GI50 (786-0) was > 100 µM (inactive), the GI50 (A498) was > 100 µM (inactive) and the GI50 (A549) was > 100 µM (inactive). The GI50 (ACHN) was > 100 µM (inactive), the GI50 (CAKI-1) was > 100 µM (inactive) and the GI50 (CCRF-CEM) was > 100 µM (inactive). The GI50 (COLO 205) was > 100 µM (inactive), the GI50 (DLD-1) was > 100 µM (inactive) and the GI50 (DMS-114) was > 100 µM (inactive). For the same compound, the GI50 (EKVX) was > 100 µM (inactive), the GI50 (HCC 2998) was > 100 µM (inactive) and the GI50 (HCT-116) was > 100 µM (inactive). The GI50 (HL-60) was > 100 µM (inactive), the GI50 (HOP-18) was > 100 µM (inactive) and the GI50 (HOP-62) was > 100 µM (inactive). For the same compound, the GI50 (HOP-92) was > 100 µM (inactive), the GI50 (HT-29) was > 100 µM (inactive) and the GI50 (IGROV-1) was > 100 µM (inactive). For the same compound, the GI50 (K562) was > 100 µM (inactive), the GI50 (KM-20L2) was > 100 µM (inactive) and the GI50 (KM12) was > 100 µM (inactive). For the same compound, the GI50 (LOX IMVI) was > 100 µM (inactive), the GI50 (LXFL 529) was > 100 µM (inactive) and the GI50 (M14) was > 100 µM (inactive). For the same compound, the GI50 (M19-MEL) was > 100 µM (inactive), the GI50 (MOLT-4) was > 100 µM (inactive) and the GI50 (Malme-3M) was > 100 µM (inactive). The GI50 (NCI-H226) was > 100 µM (inactive), the GI50 (NCI-H23) was > 100 µM (inactive) and the GI50 (NCI-H460) was > 100 µM (inactive). The GI50 (NCI-H522) was > 100 µM (inactive), the GI50 (OVCAR-3) was > 100 µM (inactive) and the GI50 (OVCAR-4) was > 100 µM (inactive). The GI50 (OVCAR-8) was > 100 µM (inactive), the GI50 (RXF 393) was > 100 µM (inactive) and the GI50 (RXF 631) was > 100 µM (inactive). For the same compound, the GI50 (SF-268) was > 100 µM (inactive), the GI50 (SF-295) was > 100 µM (inactive) and the GI50 (SF-539) was > 100 µM (inactive). The GI50 (SK-MEL-28) was > 100 µM (inactive), the GI50 (SK-MEL-5) was > 100 µM (inactive) and the GI50 (SK-OV-3) was > 100 µM (inactive). For the same compound, the GI50 (SN12C) was > 100 µM (inactive), the GI50 (SNB-19) was > 100 µM (inactive) and the GI50 (SNB-75) was > 100 µM (inactive). For the same compound, the GI50 (SNB-78) was > 100 µM (inactive), the GI50 (SR) was > 100 µM (inactive) and the GI50 (SW-620) was > 100 µM (inactive). The GI50 (TK-10) was > 100 µM (inactive), the GI50 (U-251) was > 100 µM (inactive) and the GI50 (UACC-257) was > 100 µM (inactive). The GI50 (UACC-62) was > 100 µM (inactive), the GI50 (UO-31) was > 100 µM (inactive) and the GI50 (XF498) was > 100 µM (inactive).

N#CC(C#N)=Cc1ccc(C(O)P(=O)(O)O)cc1 (centres undefined) was tested, and the GI50 (786-0) was > 100 µM (inactive), the GI50 (A498) was > 100 µM (inactive) and the GI50 (A549) was > 100 µM (inactive). For the same compound, the GI50 (ACHN) was > 100 µM (inactive), the GI50 (CAKI-1) was > 100 µM (inactive) and the GI50 (CCRF-CEM) was 71.8 µM (inactive). The GI50 (COLO 205) was > 100 µM (inactive), the GI50 (DLD-1) was > 100 µM (inactive) and the GI50 (DMS-114) was > 100 µM (inactive). The GI50 (DMS-273) was > 100 µM (inactive), the GI50 (EKVX) was > 100 µM (inactive) and the GI50 (HCC 2998) was > 100 µM (inactive). For the same compound, the GI50 (HCT-116) was > 100 µM (inactive), the GI50 (HCT-15) was > 100 µM and the GI50 (HL-60) was 93.5 µM (inactive). For the same compound, the GI50 (HOP-18) was > 100 µM (inactive), the GI50 (HOP-62) was > 100 µM (inactive) and the GI50 (HOP-92) was 39.6 µM (inactive). The GI50 (HT-29) was > 100 µM (inactive), the GI50 (IGROV-1) was > 100 µM (inactive) and the GI50 (K562) was 69.2 µM (inactive). The GI50 (KM-20L2) was > 100 µM (inactive), the GI50 (KM12) was > 100 µM (inactive) and the GI50 (LOX IMVI) was > 100 µM (inactive). For the same compound, the GI50 (LXFL 529) was > 100 µM (inactive), the GI50 (M14) was > 100 µM (inactive) and the GI50 (M19-MEL) was > 100 µM (inactive). For the same compound, the GI50 (MOLT-4) was > 100 µM (inactive), the GI50 (Malme-3M) was > 100 µM (inactive) and the GI50 (NCI-H226) was > 100 µM (inactive). For the same compound, the GI50 (NCI-H23) was > 100 µM (inactive), the GI50 (NCI-H460) was > 100 µM (inactive) and the GI50 (NCI-H522) was 56.6 µM (inactive). The GI50 (OVCAR-3) was > 100 µM (inactive), the GI50 (OVCAR-4) was > 100 µM (inactive) and the GI50 (OVCAR-5) was > 100 µM (inactive). For the same compound, the GI50 (OVCAR-8) was > 100 µM (inactive), the GI50 (RPMI-8226) was > 100 µM (inactive) and the GI50 (RXF 631) was > 100 µM (inactive). The GI50 (SF-268) was > 100 µM (inactive), the GI50 (SF-295) was > 100 µM (inactive) and the GI50 (SF-539) was > 100 µM (inactive). The GI50 (SK-MEL-28) was > 100 µM (inactive), the GI50 (SK-MEL-2) was > 100 µM (inactive) and the GI50 (SK-MEL-5) was > 100 µM (inactive). For the same compound, the GI50 (SK-OV-3) was > 100 µM (inactive), the GI50 (SN12C) was > 100 µM (inactive) and the GI50 (SNB-19) was > 100 µM (inactive). For the same compound, the GI50 (SNB-78) was > 100 µM (inactive), the GI50 (SW-620) was > 100 µM (inactive) and the GI50 (TK-10) was > 100 µM (inactive). The GI50 (U-251) was > 100 µM (inactive), the GI50 (UACC-257) was > 100 µM (inactive) and the GI50 (UACC-62) was > 100 µM (inactive). The GI50 (UO-31) was > 100 µM (inactive) and the GI50 (XF498) was > 100 µM (inactive).
